How the values were obtained:
P23H rhodopsin = test: Image-based (high-content imaging) assay in NIH3T3 (RHO^P23H/GFP) cells; assay type: cell-based; settings: for EC50 / Efficacy, Image-based assay NIH3T3 (RHO^P23H/GFP): 24 h; for EC50: 8-10 doses, rhodopsin immunostaining; for Efficacy, Image-based assay NIH3T3 (RHO^P23H/GFP): DMSO 0%, secondary antibody only −100%
Source text: Two NIH3T3 stable cell lines, NIH3T3 (RHO^WT/GFP) and NIH3T3 (RHO^P23H/GFP) were shared by Dr. Krzysztof Palczewski's lab who generated them by incorporating the […] DNA constructs to the NIH3T3 cells, respectively, via viral transduction (24, 33). GFP was co-expressed with rhodopsin for positive-clone selection. The expression of the WT and P23H rhodopsin protein was confirmed by immunoblots and immunostaining.
To assess the effect of active compounds on the clearance of P23H rhodopsin in mammalian cells, an image-based assay was performed using NIH3T3 (RHO^WT/GFP) and NIH3T3 (RHO^P23H/GFP) cells, as described previously. Briefly, cells were seeded at 5000 cells per well in 384-well plates and incubated at 37° C. in 5% CO2 for 4 hours until cells were attached to the bottom of the plate. Attached cells were treated with compounds for 24 hours. The assay medium was aspirated, and cells were fixed with 4% paraformaldehyde at 20 μL per well for 20 min at room temperature. Cell membranes were permeabilized with PBS containing 0.1% Triton X-100 (PBST) and then incubated with 50 µg/mL 1D4 anti-rhodopsin antibody at 15 μL/well for 1 hour at room temperature. After three washes with 50 μl/well of PBST, cells were incubated with 15 μL/well Cy3-conjugated goat anti-mouse IgG antibody for 1 hour at room temperature. After three washes with 50 μl/well of PBST, cells were incubated in 50 μl/well of PBS containing 2 μg/mL Hoechst 33342 to stain the nuclei. Finally, the immunostained cells were imaged by an ImageExpress High Content Imaging System (MolecularDevices). Immunofluorescence of rhodopsin was measured by MetaXpress software using the mean of total fluorescence of Cy3 channel per cell per well taken from five fields containing 600-1000 intact cells per well. After normalizing the fluorescence intensities of rhodopsin to the DMSO treated cells as 0% and cells immunostained with secondary antibody only as −100%, dose-response curves for each compound were plotted and fitted by a modified Hill function using the Origin software. The high-content imaging experiments for hit validation were performed at the CWRU drug discovery facility, and the high-content imaging analyses for the MTX co-treatment with BafA1 and MG-132 were undertaken at the University of Pittsburgh Drug Discovery Institute.

[1] = tested on: P23H mutant mouse rhodopsin fused with Renilla luciferase (Rluc); test: Rluc (luciferase) reporter assay in Hek293 (RHO^P23H-Rluc) cells; assay type: cell-based; settings: for Efficacy, Rluc assay Hek293 (RHO^P23H − Rluc): 24 h, DMSO 0%, Evans Blue −100% controls; for EC50: 24 h compound treatment, dose-response, triplicate
Source text: Two Hek293 stable cell lines, Hek293 (RHO^WT-Rluc) and Hek293 (RHO^P23H-Rluc) cells were generated which stably express the WT and P23H mutant mouse rhodopsin each fused with a Renilla luciferase (Rluc) for the luciferase reporter assay as previously described. Briefly, the Hek 293 cells (ATCC, Manassas, VA, USA) were transfected with the pcDNA3.1 Zeo containing the cDNA of mouse WT or P23H rhodopsin fused with a Rluc 8 (a gift from Dr. Navine Lambert at Augusta University, Augusta, GA USA) and transfected cells were incubated in Dulbecco's modified Eagle's medium (DMEM, Genesee Scientific, E1 Cajon, CA USA) with 10% fetal bovine serum (FBS, Gibco Laboratories, Gaithersburg, MD USA) for 48 h before addition of 400 μg/mL of Zeocin (InvivoGen, San Diego, CA USA) for positive clone selection. Colonies of cells survived from 1 week of Zeocin selection were collected, and expression of WT and P23H rhodopsin were confirmed by a luciferase assay and immunoblotting of rhodopsin with positive bands of monomers at about 70 kD (FIG. 8). The difference of molecular masses between WT and P23H rhodopsin proteins was due to differences in glycosylation, which was also seen in the NIH3T3 cells expressing the WT and P23H rhodopsin proteins.
The HTS was performed at three facilities, including University of Cincinnati (UC), Case Western Reserve University, and National Center for Advancing Translational Sciences (NCATS), testing a total of six compound collections. These compound collections include: 1) the UC 10K Diversity Set (10,011 compounds), 2) the Life Chemicals 50K Collection (50,560), 3) the Spectrum Collection (2,400 compounds), 4) the LOPAC collection (1,280 compounds), 5) the FDA collection (2,816 compounds), and 6) the NCATS MIPE collection (1,912 compounds). […] For the compound collections 1), 2) and 3), we firstly tested each compound using the P23H rhodopsin luciferase reporter assay at a single dose for once (9.93 to 16.13 μM) in 384-well format, and we identified 2072 compounds with activity scores lower than the cutoff at mean-2SD. Activity scores were normalized using DMSO treated cells as 0% control and the 1 mM Evans Blue treated cells as −100% control. From these hit compounds, we excluded those reported with luciferase inhibitor activities and cherry-picked the rest for hit confirmation. Each hit was tested at 10 μM in the Hek293 (RHO^P23H-Rluc) cells again by the luciferase reporter assay in triplicates, and the confirmed hits with activity scores lower than-50% were then counter screened for their effects on Rluc activity by the recombinant Rluc activity assay, and on WT rhodopsin level by the luciferase reporter assay in the Hek293 (RHO^WT-Rluc) cells at 10 μM in triplicates, respectively. […] Next, we tested the dose responses of these confirmed hits in both the Hek293 (RHO^P23H-Rluc) and the Hek293 (RHO^WT-Rluc) cells and identified compounds that selectively favored the clearance of P23H than WT rhodopsin in a dose-dependent manner (Table 4). For the compound collections 4)-6), we tested each compound directly at 7 or 11 doses using the luciferase reporter assay in the Hek293 (RHO^P23H-Rluc) cells in 1536-well format, and identified 128 compounds with efficacy smaller than-50% and EC50<20 μM.
The Rluc reporter assay has been described before. HTS was undertaken in 384-well format for the UC 10K Diversity Set, Spectrum Collection and the Life Chemicals 50K diversity set, and in 1536-well format for the FDA, LOPAC, and MIPE collections. Using the 384-well format as an example, Hek (RHO^P23H-Rluc) cells were seeded in 384-well white-wall clear-bottom plates (assay plates) at 3×10^5/mL for 40 μL/well by an 8-channel Multiflo liquid dispenser (Bioteck, Winooski, VT USA). The assay plates were centrifuged at 300×g for 30 s and cultured at 37° C. with 5% CO2 overnight. […]

Compound | EC50 (P23H rhodopsin) | Efficacy, Image-based assay NIH3T3 (RHO^P23H/GFP) (P23H rhodopsin) | Efficacy, Rluc assay Hek293 (RHO^P23H − Rluc) [1] | EC50 [1] | EC50 (P23H rhodopsin; listed as MTX) | mean intensity of P23H rhodopsin immunostaining per cell (P23H rhodopsin; MTX alone, dose series) | MTX dose-dependent reduction of P23H rhodopsin immunostaining, co-treatment with BafA1 (P23H rhodopsin; co-treatment 100 nM BafA1) | MTX dose-dependent reduction of P23H rhodopsin immunostaining, addition of MG-132 (P23H rhodopsin; co-treatment 5 μM MG-132)
CC(=O)OC(CC(=O)[O-])C[N+](C)(C)C (stereo not shown) [CL-001] | 2100 nM | −83.6% | −69.4% | 1100 nM | – | – | – | –
CC(=O)OC(CC(=O)O)C[N+](C)(C)C (stereo not shown) [CL-002] | 1600 nM | −61.0% | −86.1% | 2000 nM | – | – | – | –
O=C(O)C1=CC=CC(O)C1O (stereo not shown) [CL-003] | 600 nM | −46.1% | −65.3% | 890 nM | – | – | – | –
CC(O)CN (stereo not shown) [CL-004] | 470 nM | −70.7% | −68.6% | 1600 nM | – | – | – | –
NCC(=O)COP(=O)(O)O [CL-005] | 1300 nM | −72.7% | −78.2% | 6600 nM | – | – | – | –
O=C(NC1CCNCC1)c1n[nH]cc1NC(=O)c1c(Cl)cccc1Cl [CL-006] | 2200 nM | −76.4% | −66.2% | 1700 nM | – | – | – | –
CCn1cnc2c(N)ncnc21 [CL-007] | 2900 nM | −72.7% | −72.5% | 13000 nM | – | – | – | –
CCC(C)(O)C(O)C(=O)O (stereo not shown) [CL-008] | 1600 nM | −70.1% | −89.5% | 930 nM | – | – | – | –
CN(Cc1cnc2nc(N)nc(N)c2n1)c1ccc(C(=O)N[C@@H](CCC(=O)O)C(=O)O)cc1 [CL-009, N-[4-[[(2,4-diamino-6-pteridinyl)methyl]methylamino]benzoyl]-L-glutamic acid] | 3300 nM | −36.0% | −53.0% | 430 nM | ~3300 nM | reduced in an MTX dose-dependent manner | entirely abolished | not affected

Source: US12678440B2, “Compositions and methods for treating misfolded protein ocular disorders” (CASE WESTERN RESERVE UNIVERSITY, priority 2020, dated 2026)
